Assay results as given in ChEMBL document CHEMBL1130093, “Synthesis and nicotinic acetylcholine receptor binding properties of exo-2-(2'-fluoro-5'-pyridinyl)-7-azabicyclo-[2.2.1]heptane: a new positron emission tomography ligand for nicotinic receptors” (J Med Chem, 1997).

target: Neuronal acetylcholine receptor (Rattus norvegicus) (UniProt P04757+P09483+P12389+P12390+P12392+P43144+Q9JLB5+P12391+P43143+P20420+Q05941); test: Kapp value towards nicotinic acetylcholine receptor was obtained from three to four independent competition binding experiments using [3H]-NCEPB; assay type: protein-complex assay

SMILES | K app
Clc1ccc(C2CC3CC[C@H]2N3)cn1 (stereo partly drawn) | 0.024 nM
CN1CCC[C@H]1c1cccnc1 | 6.2 nM
Fc1ccc([C@H]2CC3CCC2N3)cn1 (stereo partly drawn) | 0.02 nM
